Results on ten molecules are retold here after US6566541B2, “Type 2 methionine aminopeptidase (MetAP2) inhibitors and uses thereof” (Massachusetts Institute of Technology, priority 1997, dated 2003).

One assay has as its target p67 (MetAP2) (Mus musculus, UniProt O08663).
Assay [1] has as its system map2 null [XLP201 (map2::URA3)] yeast cells. The note with it: 50 nM drug, YEPD plate, 30° C., four days. How it is done: To further test the specificity of these drugs, both wild type and mutant yeast strains lacking either MetAP1 (map1) or MetAP2 (map2) were plated onto media containing the two drugs. […] The plates were incubated at 30° C. for four days.
The test system of assay [2] is map1 null [XLP101 (map1::HIS3)] yeast cells. Briefly: yeast growth on YEPD plates containing drug, map1 null. It is filed as cell-based, Saccharomyces cerevisiae. As to conditions: 50 nM drug, YEPD plate, 30° C., four days. From the text:
(§1) […]. […] […].

A further assay has as its target recombinant yeast MetAP2 (Saccharomyces cerevisiae, UniProt P38174). In words: MetAP activity of recombinant yeast MetAP2 in vitro. As to conditions: concentrations as low as 5 nM. It counts as biochemical.
Assay [3] relates to Wild-type [YPH500] yeast cells. Briefly: yeast growth on YEPD plates containing drug, wild type. It is filed as cell-based, Saccharomyces cerevisiae. As to conditions: 50 nM drug, YEPD plate, 30° C., four days.
Source text: as §1

In assay [4] the target is T1, recombinant human MetAP2 (Homo sapiens, UniProt P50579).
T1 construct: made in house; host or cells: insect cells
Briefly: covalent binding to MetAP2 (biotin conjugates, denaturing SDS-PAGE, streptavidin-HRP). As to conditions: drug-protein complex maintained under denaturing conditions.
Experimental: The protein samples were boiled in a sample buffer containing SDS and β-mercaptoethanol, subjected to SDS-PAGE, and transferred to nitrocellulose.
100 ng of recombinant human MetAP2 was incubated in 40 μl binding buffer (20 mM Tris·HCl, pH 7.1, 100 mM KCl, 0.2% Triton X-100) in the presence or absence of competitors for 1 hr followed by incubation with the biotin conjugates (1 μM) at 4° C. for 2 hr. 40 μl of 2×SDS sample buffer containing β-mercaptoethanol was added and the samples were boiled for 10 min. Following SDS-PAGE, the samples were transferred to nitrocellulose at 50V for 1 hr at 4° C. and blocked overnight in blocking solution (5% BSA, 2% Nonfat milk, 0.02% NaN3 in PBS). The membrane was incubated with rabbit anti-human MetAP2 antibodies (1:500) for 1 hr at room temperature, followed by incubation with sheep anti-rabbit IgG-HRP or incubated with streptavidin-HRP (1:1000) for 1 hr and visualized with the chemilluminescent ECL kit (Amersham, Arlington Heights, Ill.), as per manufacturer's instructions.

Assay [5] has as its target T1, recombinant human MetAP2. Briefly: MetAP2 inhibition of eIF-2α phosphorylation by heme-regulated inhibitor kinase (HRI). It counts as biochemical. The note with it: compared with unbound MetAP2. How it is done:
Modified or control MetAP2 (0.6 μg) was incubated with purified eIF-2 (0.3 μg) in 20 mM Tris·HCl, pH 7.8, 40 mM KCl, and 2 mM MgAC2 on ice for 1 hr. Recombinant HRI (0.25 ng) and [γ-^32P]ATP were then added to a final total volume of 20 μl and the reaction mixture was further incubated at 37° C. for 10 min. The labeled eIF-2α was analyzed by 10% SDS-PAGE followed by autoradiography. The phosphorylated bands were quantified by NIH Image 1.60 software.

In assay [6] the target is T1, recombinant human MetAP2. In words: methionine aminopeptidase activity of MetAP2 (Met-Gly-Met-Met substrate). It is filed as biochemical. How it is done:
Recombinant human MetAP2 was expressed and purified from insect cells as described in Li and Chang, Biochem. Biophys. Res. Commun. […] Released methionine was quantified at different time points (0, 2, 3 and 5 min) using the method of Zuo et al., Mol. Gen.
(§2) Synthesis was according to the procedures as described in Mauri et al., Chem. Pharm. Bull. […] Bull.

Another assay deals with T2, 67 kD (p67) (Bos taurus, UniProt Q3ZC89).
T2 construct: endogenous in cells; host or cells: BAEC (bovine aortic endothelial cells) extract
Briefly: competition of ovalicin photoaffinity labeling in BAEC extracts. It counts as binding, bovine. As to conditions: BAEC extract preincubated with excess cold competitor. How it is done:
Photoaffinity labeling was performed as follows. […] Reaction mixtures were incubated on ice in the dark for 1 hr and then irradiated at 254 nm (0.2 J/cm^2). Reactions were quenched by adding 1.5 μl β-mercaptoethanol followed by 7.5 μl 5×SDS sample buffer and heated in a boiling water bath for 3 min. Samples were analyzed by 10% SDS/PAGE, followed by autoradiography.

The subject of assay [7] is bovine aortic endothelial cell (BAEC). In words: bovine aortic endothelial cell (BAEC) proliferation assay (MTT). As to conditions: for IC50: Bos taurus; for activity in the BAEC proliferation assay: result in words. It is filed as cell-based. How it is done: BAEC were trypsinized and plated into 96-well plates at a density of 2000 cells per well. After the cells adhered to the plate, compounds dissolved in ethanol (final concentration of 0.5%) were added to the cultures.
as §2

The next assay concerns the target T3, recombinant yeast MetAP1 (Saccharomyces cerevisiae, UniProt Q01662).
T3 sequence (Q01662 1-387): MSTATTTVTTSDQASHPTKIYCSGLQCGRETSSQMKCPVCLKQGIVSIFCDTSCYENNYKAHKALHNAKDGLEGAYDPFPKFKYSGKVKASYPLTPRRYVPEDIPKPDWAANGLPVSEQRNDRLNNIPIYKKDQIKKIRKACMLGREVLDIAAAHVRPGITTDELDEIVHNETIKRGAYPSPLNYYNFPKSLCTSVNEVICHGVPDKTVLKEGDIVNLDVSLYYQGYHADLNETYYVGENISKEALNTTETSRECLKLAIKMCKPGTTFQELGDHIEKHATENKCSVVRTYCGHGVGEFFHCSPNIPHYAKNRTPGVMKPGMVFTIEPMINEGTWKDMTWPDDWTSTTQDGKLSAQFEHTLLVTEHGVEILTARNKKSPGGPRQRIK
In words: MetAP activity of recombinant yeast MetAP1 in vitro. It counts as biochemical. The note with it: concentrations up to 10 μM.

Where [8] appears, read: MetAP2 IC50 (nM), MetAP2 enzymatic activity, average of at least three experiments.
The mark [9] stands for this setting: BAEC proliferation, average of at least three experiments, read-out: Proliferation IC50.
The mark [10] stands for this setting: BAEC, read-out: Proliferation IC50 (nM).
[11] abbreviates: MetAP2 enzymatic activity, average of at least three experiments, read-out: MetAP2 IC50.

Where two headings read alike, the source gives them in different places.

T1 sequence (P50579 whole entry): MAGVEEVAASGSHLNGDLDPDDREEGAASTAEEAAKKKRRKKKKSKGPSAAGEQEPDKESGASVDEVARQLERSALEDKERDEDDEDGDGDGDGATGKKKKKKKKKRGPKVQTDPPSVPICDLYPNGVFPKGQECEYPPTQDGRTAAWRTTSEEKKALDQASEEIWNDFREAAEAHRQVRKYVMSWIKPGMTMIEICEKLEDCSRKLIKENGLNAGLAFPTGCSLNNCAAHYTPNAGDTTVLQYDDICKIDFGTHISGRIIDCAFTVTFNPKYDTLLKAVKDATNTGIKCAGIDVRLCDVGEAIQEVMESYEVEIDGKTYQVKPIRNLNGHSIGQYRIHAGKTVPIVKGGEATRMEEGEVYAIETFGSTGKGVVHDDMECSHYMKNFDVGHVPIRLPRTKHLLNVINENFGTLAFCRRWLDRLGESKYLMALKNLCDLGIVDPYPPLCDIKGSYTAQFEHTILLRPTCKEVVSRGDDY
Chain of p67 (MetAP2) (O08663 whole entry): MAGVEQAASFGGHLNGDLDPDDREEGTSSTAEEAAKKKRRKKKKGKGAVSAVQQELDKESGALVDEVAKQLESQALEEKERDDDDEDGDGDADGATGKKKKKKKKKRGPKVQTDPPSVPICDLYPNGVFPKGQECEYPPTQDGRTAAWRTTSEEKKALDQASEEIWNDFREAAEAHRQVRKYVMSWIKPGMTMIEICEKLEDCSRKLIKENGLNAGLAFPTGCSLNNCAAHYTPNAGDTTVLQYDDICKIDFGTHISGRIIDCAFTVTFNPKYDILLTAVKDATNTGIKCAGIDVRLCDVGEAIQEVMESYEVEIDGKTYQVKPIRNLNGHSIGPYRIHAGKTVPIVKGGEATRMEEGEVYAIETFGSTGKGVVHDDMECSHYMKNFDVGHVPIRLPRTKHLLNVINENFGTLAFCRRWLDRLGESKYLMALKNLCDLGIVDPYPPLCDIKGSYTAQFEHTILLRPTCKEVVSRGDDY
Chain of recombinant yeast MetAP2 (P38174 whole entry): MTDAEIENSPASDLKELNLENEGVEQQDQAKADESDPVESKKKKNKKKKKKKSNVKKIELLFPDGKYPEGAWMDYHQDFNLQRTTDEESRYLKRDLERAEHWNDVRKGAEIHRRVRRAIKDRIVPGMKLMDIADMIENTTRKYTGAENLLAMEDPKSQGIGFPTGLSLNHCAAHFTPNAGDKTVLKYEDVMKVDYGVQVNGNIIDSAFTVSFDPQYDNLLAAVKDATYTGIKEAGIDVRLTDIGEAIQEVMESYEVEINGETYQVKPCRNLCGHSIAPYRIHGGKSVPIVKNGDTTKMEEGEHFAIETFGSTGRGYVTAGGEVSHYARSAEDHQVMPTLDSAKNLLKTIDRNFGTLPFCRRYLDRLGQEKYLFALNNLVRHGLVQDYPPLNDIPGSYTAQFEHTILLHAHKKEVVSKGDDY
T2 sequence (Q3ZC89 whole entry): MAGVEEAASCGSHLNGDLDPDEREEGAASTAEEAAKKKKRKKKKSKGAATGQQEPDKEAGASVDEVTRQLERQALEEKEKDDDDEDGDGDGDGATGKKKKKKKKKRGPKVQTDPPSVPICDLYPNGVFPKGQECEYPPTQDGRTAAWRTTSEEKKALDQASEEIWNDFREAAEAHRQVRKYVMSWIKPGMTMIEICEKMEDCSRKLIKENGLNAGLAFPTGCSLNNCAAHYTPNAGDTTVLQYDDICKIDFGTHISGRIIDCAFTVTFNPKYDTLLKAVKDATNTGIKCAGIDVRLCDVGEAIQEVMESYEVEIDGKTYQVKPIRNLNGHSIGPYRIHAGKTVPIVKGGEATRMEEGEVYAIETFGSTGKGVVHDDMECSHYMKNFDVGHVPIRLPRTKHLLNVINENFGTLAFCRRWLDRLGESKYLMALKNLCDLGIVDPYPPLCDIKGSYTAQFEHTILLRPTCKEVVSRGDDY

On to `CO[C@@H]1[C@H](OC(=O)NC(=O)CCl)CC[C@]2(CO2)[C@H]1[C@@]1(C)O[C@@H]1CC=C(C)C` [AGM-1470], for which the “competition of band reacting with anti-human MetAP2 antibodies” value on p67 (MetAP2) (Western blot of protein retained by biotin-fumagillin and biotin-ovalicin conjugates) is on record as “elimination of the cross-reacting band”. Further, at p67 (MetAP2) (mouse embryo extract, 50 μM competitor), the “p67 retention by biotin-ovalicin conjugate on immobilized streptavidin” value is reported as “sensitive”. In addition, the “competition of p67 binding by biotin-fumagillin” value at p67 (MetAP2) (mouse embryo extract, 50 μM competitor, silver stain) is on record as “competed”. In addition, in assay [1], the “growth of map2 mutant yeast” value is “resistant”. In assay [2], the “growth of the map1 mutant” value was “completely inhibited”. The “inhibition of the yeast MetAP2 enzyme” value on recombinant yeast MetAP2 is listed as “completely inhibited”. The “growth of wild type yeast” value in assay [3] is “resistant”. For the same molecule, at recombinant human MetAP2 [4], the “mode of binding to MetAP2” value is on record as “bound to MetAP2 covalently”. In addition, on recombinant human MetAP2 [5], the “MetAP2 bound by drug: inhibiting phosphorylation of eIF-2α by HRI” value is on record as “as effective as unbound MetAP2”. Also, the IC50 on recombinant human MetAP2 [6] (IC50, methionine aminopeptidase activity of MetAP2, estimated, 1 nM of recombinant human MetAP2 used in the assay) was approximately 1 nM; on recombinant human MetAP2 [6] (setting [8]), 1 ± 0.3 nM; in assay [7] (setting [9]), 0.037 ± 0.0024 nM. Besides, the “effect on p67 labeling by ovalicin photoaffinity probe” value at 67 kD (p67) is on record as “abrogated p67 labeling”. In addition, the “inhibition of MetAP activity of the type 1 enzyme” value on recombinant yeast MetAP1 was “No inhibition”.

Take `CO[C@@H]1[C@H](O)CC[C@]2(CO2)[C@@]1(O)[C@@]1(C)O[C@@H]1CC=C(C)C` [FOS-34, (3S,4R,5R,6R)-4-[(1′S,2′S)-1′,2′-Epoxy-1′,5′-dimethyl-4′-hexenyl]-5-methoxy-1-oxaspiror[2.5]octane-4,6-diol]: the IC50 stood at 4 ± 1 nM at recombinant human MetAP2 [6] (setting [8]) and 2.2 ± 1.4 nM in assay [7] (setting [10]).

As to `COC1C(OC(=O)NC(=O)CCl)CCC(O)(CSC)C1(O)C1(C)OC1CC=C(C)C` [FOS-67, (1R,2S,3R,4R)-1-Methylthiomethylene-2-[(1′S,2′S)-1′,2′-epoxy-1′,5′-dimethyl-4′-hexenyl]-3-methoxy-4-O-(N-chloroacetyl)carbamoyl-cyclohexane-1,2,4-triol], the IC50 is 400 ± 200 nM on recombinant human MetAP2 [6] (setting [11]) and 40 ± 4 nM in [7] (setting [9]).

For the molecule `CO[C@@H]1[C@H](OC(=O)NC(=O)CCl)CC[C@]2(CO2)[C@@]1(O)[C@@]1(C)O[C@@H]1CC=C(C)C` [FOS-68, (3S,4R,5R,6R)-4-[(1′S,2′S)-1′,2′-Epoxy-1′,5′-dimethyl-4′-hexenyl]-5-methoxy-6-O(N-chloro-acetyl)carbamoyl-1-oxaspiror[2.5]octane-4,6-diol], the IC50 at recombinant human MetAP2 [6] (setting [11]) amounted to 2 ± 0.8 nM; in assay [7] (setting [9]), 0.46 ± 0.26 nM.

For `CO[C@@H]1[C@H](OC(=O)CCCCl)CC[C@]2(CO2)[C@@]1(O)[C@@]1(C)O[C@@H]1CC=C(C)C` [FOS-69, (3S,4R,5R,6R)-4-[(1′S,2′S)-1′,2′-Epoxy-1′5′-dimethyl-4′-hexenyl]-5-methoxy-6-O(4″chlorobutyryl)-1-oxaspiror[2.5]octane-4,6-diol], the IC50 worked out at 0.1 ± 0.03 nM at recombinant human MetAP2 [6] (setting [8]) and 0.31 ± 0.066 nM in assay [7] (setting [9]).

Regarding `CO[C@@H]1C(=O)CC[C@]2(CO2)[C@H]1[C@@]1(C)O[C@@H]1CC=C(C)C` [FOS-72, (3R,4S,5S)-4-[(1′R,2′S)-1′,2′-Epoxy-1′,5′-dimethyl-4′-hexenyl]-5-methoxy-1-oxaspiror[2.5]octan-6-one], the IC50 worked out at 6 ± 2 nM on recombinant human MetAP2 [6] (setting [11]) and 0.013 ± 0.0015 nM in assay [7] (setting [10]).

On to `COC1C(O)CCC(O)(CSC)C1(O)C1(C)OC1CC=C(C)C` [FOS-201, (1R,2S,3R,4R)-1-Methylthiomethylene-2-[(1′S,2′S)-1′,2′-epoxy-1′,5′-dimethyl-4′hexenyl]-3-methoxycyclohexane-1,2,4-triol], for which the IC50 was 45 ± 12 nM on recombinant human MetAP2 [6] (setting [11]) and 56 ± 34 nM in assay [7] (setting [9]).

For the molecule `CO[C@@H]1C(=O)CC[C@]2(CO2)[C@@]1(O)[C@@]1(C)O[C@@H]1CC=C(C)C` [Ovalicin], the “growth of the map1 mutant” value in [2] is reported as “completely inhibited”. In addition, the “inhibition of the yeast MetAP2 enzyme” value on recombinant yeast MetAP2 is on record as “completely inhibited”. In addition, the “growth of wild type yeast” value in assay [3] is on record as “resistant”. Further, the “inhibition of MetAP activity of the type 1 enzyme” value at recombinant yeast MetAP1 was “No inhibition”.

For `COC1C(OC(=O)NCCCCCCCCNC(=O)CCCCC2SCC3NC(=O)NC32)CCC2(CO2)C1C1(C)OC1CC=C(C)C` (centres unmarked) [biotin-fumagillin], the “activity in the BAEC proliferation assay” value in assay [7] was “retain significant activity”.

As to `CO[C@@H]1[C@H](OC(=O)NCCNC(=O)CCc2ccc(O)cc2)CC[C@]2(CO2)[C@@]1(O)C1(C)O[C@@H]1CC=C(C)C` (some centres unmarked) [photoaffinity label mimic], the “activity in the BAEC proliferation assay” value in assay [7] is “retained significant, albeit decreased, activity”.
